From patent US5066580A, “Xanthene dyes that emit to the red of fluorescein” (priority 1990, dated 1991)
Like-named read-outs stand apart in the source and are kept apart here.

Assays:
[1] = cited from earlier work
[2] = 470-670 nm (fluorescein), 500-700 nm (eosin), 600-800 nm (allophycocyanin); cited from earlier work
[3] = Absorbance maximum and extinction coefficient; format: physicochemical; conditions: for red shift of absorbance maxima vs carboxy analogs: compared to carboxy analogs 1, 4 and 7
Protocol: First, the extinction coefficient of compounds 1-9 and 14 was determined. Stock solutions (5×10^-3 M) of each dye were made by dissolving the dye in two equivalents of 0.1 N NaOH and making up the volume with carbonate/bicarbonate buffer (0.16, 0.34 M, pH 9.5). The solution was diluted ([…]) in additional buffer (final pH 9.5-10) and the absorbance spectrum measured. A stock solution (1.2×10^-3 M) of Vita Blue was prepared in DMSO, diluted into citrate buffer (0.1 M, pH 5 2) to give a final concentration of 1.6×10^-5 M and the absorbance spectrum measured. A stock solution (8.2×10^-3 M) of VBDB was prepared in DMSO and diluted into pyrophosphate buffer (0.1 M, pH 7.2) to give a final concentration of 8.1×10^-5 M and the absorbance spectrum measured on a Beckman model DU-6UV visible spectrophotometer.
(§1) Finally, the spectral characteristics of compounds 1-9 was determined. The extinction coefficients and quantum yields or compounds 1-9 were determined at pH 9.5. The extinction coefficient and quantum yield of monoprotonated Vita Blue was also determined at pH 5.2. The extinction coefficient and the quantum yield of VBDB were determined at pH 7.2.

[4] = Fluorescence emission maximum and quantum yield; format: physicochemical; conditions: for red shift of emission maxima vs carboxy analogs: compared to carboxy analogs 1, 4 and 7; for effect of sulfo group on extinction coefficient and quantum yield: compared to carboxy analogs 1 and 7
Protocol: Second, quantum yields of compounds 1-9 and 14 were measured. Solutions (1×10^-6 M) of compounds 1-9 were prepared in carbonate/ bicarbonate buffer (pH 9.5). Fluorescence emission spectra were measured on a Perkin-Elmer MPF-2A fluorescence spectrophotometer in 3-mL disposable plastic cuvettes. The excitation wavelength was set 30 nm to the red of the maximum excitation wavelength and the emission spectra measured. The area under the emission spectrum was measured (F). The quantum yield (.PHI.) was determined using the following equation, F-kIo .PHI.εcb, where F is the fluorescence, k is a fluorimeter constant, Io is the light intensity at the exciting wavelength, ε is the extinction coefficient at the exciting wavelength, c is the concentration of the dye, and b is the pathlength of the cuvette. The value of k was determined for three different emission wavelength regions by using literature values of .PHI. and measuring the fluorescence of fluorescein (470-670 nm, .PHI.=0.92), eosin (500-700 nm, .PHI.=0.19) and allophycocyanin (Applied BioSystems, 600-800 nm, .PHI.=0.68). The value of Io was determined from a table that was generated by scanning the range of exciting wavelengths on the fluorescence spectrophotometer with the emission monochrometer open; a piece of white paper was placed in the sample holder to reflect the exciting light. The concentration of the dyes were 0.6-1.0 uM; this value in each case was below the concentration ([…]) required in order for the equation to be valid.
as §1

[5] = Fluorescence emission spectra of Vita Blue at varying pH; format: physicochemical
Protocol: Fluorescence emission spectra of Vita Blue also was determined. To each of five plastic cuvettes (3 mL) were added one of the following buffered solutions (0.1 M): citrate buffer (pH 4.21), pyrophosphate buffer at three pH values (6.22, 7.21, 9.05), and EPPS buffer (pH 8.37). Vita Blue solution (5 uL, 1.25×10^-3 M) was added, and the fluorescence emission spectra from 450 to 650 nm was measured. The excitation wavelength was 540 nm.

[6] = Absorbance titration of Vita Blue; format: physicochemical
Protocol: Absorbance titration of Vita Blue then was measured. To a plastic cuvette (3 mL) was added the following solutions: citrate buffer (0.1 mL, 0.1 M, pH 4.2), pyrophosphate buffer (0.1 mL, 0.1 M, pH 6.2), EPPS buffer (0.1 mL, 0.1 M, pH 8.4), water (2.6 mL), HCl solution (5 uL, 6 N) and Vita Blue solution (8 or 40 uL, […]). The final concentration of Vita Blue was 3.4×10^-6 or 1.7×10^-5 M. The initial pH was approximately 3. Aliquots of NaOH solution were added (1-3 uL, 4 N) and the pH and the absorbance spectrum from 700 to 400 nm measured.

human white blood cells = test: Staining of lysed whole blood, fluorescence by flow cytometry; format: cell-based; conditions: 1 uM dye
Protocol: After characterizing the various xanthene dyes prepared in accordance with this invention, one of the dyes (VBDB) was used to stain cells. The ability of VBDB to stain cells was compared with BCECF-AM, a membrane permeable esterase substrate (Molecular Probes) and fluorescein diacetate (FDA). […] After incubation, the tube was centrifuged. This procedure specifically lyses red blood cells leaving the white cells intact and viable. The supernatant was removed and the white blood cells which remained were washed twice and resuspended in blood cell diluent (1 mL, Diagnostic Technology, Inc.). The cell concentration and the percentage of dead cells were ascertained by counting the cells manually using a fluorescent microscope and a hemacytometer; acridine orange and ethidium bromide were used to stain live and dead cells respectively.
Four samples of approximately 1.7×10^6 cells then were placed in polystyrene tubes. To each tube was added one of the following solutions (1 mL): FDA (1 uM) BCECF-AM (1 uM), VBDB (0.8 uM), or VBDB (8.0 uM). The dye solutions were prepared by diluting a stock solution of each dye (1-8 mM in DMSO) into blood cell diluent. The tubes were kept at room temperature for 30 minutes. The samples were washed three times and resuspended in blood cell diluent (1 mL).
A bandpass 530/30 emission filter was used for both FDA and BCECF-AM, while a bandpass 660/20 emission filter was used for VBDB. Data from 10,000 events were acquired from each of these samples immediately after staining, one hour after staining, and two hours after staining.
Referring to FIG. 2, VBDB, BCECF-AM and FDA were compared as vital dyes by staining lysed whole blood and examining the fluorescence by flow cytometry. […] Four samples of cells were incubated with BCECF AM (1 uM), FDA (1 uM) and VBDB (0.8 uM, 8.0 uM). The cells were analyzed immediately after staining (t=0), after one hour (t=1) and after two hours (t=2).
The data in FIG. 2 also was used to quantitate the "live" cells and the "dead" cells. […] It was assumed the live cells were those cells which retained the dye (the right peak) and that dead cells were those cells whose membranes had become leaky (the left peak). By setting the gate to the immediate left of the main peak, the "dead" cells to the left of the gate were counted.

[7] = pH 5.2 (monoprotonated Vita Blue)

Row | Compound | Abs Max ([3]; pH 9.5) [nm] | ε (extinction coefficient) ([3]; pH 9.5) [M⁻¹ cm⁻¹] | EM Max ([4]; pH 9.5) [nm] | Quantum Yield ([4]; pH 9.5, dianionic form) | other results
1 | O=C(O)c1ccccc1-c1c2ccc(=O)cc-2oc2cc(O)ccc12 [Compound 1, fluorescein] | 491 | 80000 | 516 | 0.92 | Quantum Yield ([1]; background): 0.93; difference of pKa2 and pKa3 ([1]; fluorescein and related compounds): 2.3 units; quantum yield, literature value [2]: 0.92
2 | O=c1ccc2c(-c3ccccc3S(=O)(=O)O)c3ccc(O)cc3oc-2c1 [Compound 2, Sulfonefluorescein] | 497 | 78000 | 517 | 0.92 | red shift of absorbance maxima vs carboxy analogs [3]: 6-14 nm; red shift of emission maxima vs carboxy analogs [4]: 1-5 nm; effect of sulfo group on extinction coefficient and quantum yield [4]: little effect
3 | CN(C)c1ccc2c(-c3ccccc3C(=O)O)c3ccc(=O)cc-3oc2c1 [Compound 3, Rhodol] | 522 | 57000 | 545 | 0.20 | 
4 | O=C(O)c1ccccc1-c1c2c3ccccc3c(=O)cc-2oc2cc(O)c3ccccc3c12 [Compound 4, 1,2,7,8 dibenzofluorescein] | 534 | 81000 | 565 | 0.24 | 
5 | O=C(O)c1ccccc1-c1c2c3ccccc3c(=O)c(Br)c-2oc2c(Br)c(O)c3ccccc3c12 [Compound 5, 1,2,7,8-Dibenzo-4.5-dibromofluorescein] | 549 | 24000 | 581 | 0.05 | excitation maxima compared to parent dyes [3]: at longer wavelengths; extinction coefficient and quantum yield compared to parent dyes [4]: lower than the parent dyes
6 | O=c1cc2oc3cc(O)c4ccccc4c3c(-c3ccccc3S(=O)(=O)O)c-2c2ccccc12 [Compound 6, 1,2,7,8-Dibenzosulfonefluorescein] | 541 | 81000 | 567 | 0.48 | red shift of absorbance maxima vs carboxy analogs [3]: 6-14 nm; red shift of emission maxima vs carboxy analogs [4]: 1-5 nm; quantum yield vs carboxy analog ([4]; compared to compound 4): twice the quantum yield
7 | O=C(O)c1ccccc1-c1c2ccc3cc(O)ccc3c2oc2c1ccc1cc(=O)ccc12 [Compound 7, naphthofluorescein] | 595 | 44000 | 660 | 0.14 | 
8 | O=C(O)c1ccccc1-c1c2ccc3c(Br)c(O)ccc3c2oc2c1ccc1c(Br)c(=O)ccc12 [Compound 8, 4,10 Dibromonaphthofluorescein] | 605 | 32000 | 682 | 0.05 | 
9 | O=c1ccc2c(ccc3c(-c4ccccc4S(=O)(=O)O)c4ccc5cc(O)ccc5c4oc32)c1 [Compound 9] | 609 | 36000 | 665 | 0.15 | isobestic point, emission spectra ([5]; excitation 540 nm, varying pH): 630 nm; dual fluorescence ([5]; mono- and diprotonated forms): showed dual fluorescence; excitation maxima compared to parent dyes [3]: at longer wavelengths; red shift of absorbance maxima vs carboxy analogs [3]: 6-14 nm; Abs Max [3, 7]: 524 nm; ε (extinction coefficient) [3, 7]: 13000 M⁻¹ cm⁻¹; absorbance peak maximum (apparent dimer) ([6]; 1.7×10^-5 M, pH 3.10, 4.06 and 6.45): 600 nm; isobestic point, absorbance titration ([6]; 3.4×10^-6 M): approximately 540 nm; extinction coefficient and quantum yield compared to parent dyes [4]: lower than the parent dyes; separation of emission maxima of monoanionic and dianionic forms [4]: 100 nm; red shift of emission maxima vs carboxy analogs [4]: 1-5 nm; effect of sulfo group on extinction coefficient and quantum yield [4]: little effect; EM Max [4, 7]: 570 nm; Quantum Yield ([4]; pH 5.2, monoanionic form): 0.04
10 | CC(=O)Oc1ccc2c(c1)Oc1cc(OC(C)=O)ccc1C21OC(=O)c2ccccc21 [FDA, fluorescein diacetate, reference compound] |  |  |  |  | retention of initial fluorescence by stained cells over time (human white blood cells): did not retain their initial fluorescence over time
11 | O=C1OC2(c3ccccc31)c1cc(Br)c(O)c(Br)c1Oc1c2cc(Br)c(O)c1Br [eosin] |  |  |  |  | quantum yield, literature value [2]: 0.19
12 | allophycocyanin |  |  |  |  | quantum yield, literature value [2]: 0.68
